From patent publication US10800792B2, “Inhibitors of Bruton's tyrosine kinase and method of their use” (JANSSEN PHARMACEUTICA NV, priority 2015, dated 2020) come the findings set out here.

Molecules are shown by their SMILES. Where two headings read alike, the source gives them in different places. A value given as a limit tells only on which side of the number the result lay.

The target in this test is unphosphorylated-BTK kinase domain (UP-BTK), GST-tagged human BTK (389-659aa) (Homo sapiens (Human), UniProt Q06187). Kind of test: BTK kinase Lanthascreen binding assay. The settings on record: pIC50 = negative log of the IC50 in molar; for IC50: read-out: BTK_I_binding pIC50 (converted). Summed up: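 Values are pIC50, i.e. negative log of IC50 in molar, derived from concentration–response fitting. Each compound competes with a fluorescently labelled tracer for the unphosphorylated kinase domain.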

The mark [1] stands for this setting: unphosphorylated-BTK kinase domain, 50 nM Tracer 236, 60 minutes.
Setting [2] is: Lanthascreen tracer competition, 60 minutes incubation.

unphosphorylated-BTK kinase domain (UP-BTK), GST-tagged human BTK (389-659aa), sequence (Q06187 389-659): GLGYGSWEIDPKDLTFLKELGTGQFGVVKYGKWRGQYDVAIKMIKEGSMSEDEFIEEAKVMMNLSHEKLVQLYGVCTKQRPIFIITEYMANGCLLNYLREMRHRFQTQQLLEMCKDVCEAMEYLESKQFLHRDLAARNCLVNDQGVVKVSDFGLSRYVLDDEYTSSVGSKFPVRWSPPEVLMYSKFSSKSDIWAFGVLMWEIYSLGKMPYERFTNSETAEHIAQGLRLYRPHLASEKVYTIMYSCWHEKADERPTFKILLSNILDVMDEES

Take `C=CS(=O)(=O)N1CCC[C@@H](NC(=O)c2sc3nccc4c3c2NC(=O)N4c2ccc(Oc3ccccc3)cc2C)C1` (single isomer, unassigned) [Example 530, (R)-5-(*S)-(2-Methyl-4-phenoxyphenyl)-4-oxo-N-(1-(vinylsulfonyl)piperidin-3-yl)-4,5-dihydro-3H-1-thia-3,5,8-triazaacenaphthylene-2-carboxamide]: the “BTK_I_binding pIC50” value under setting [1] was 8.0.
`[2H]C([2H])([2H])N1CCC[C@@H](NC(=O)c2sc3nccc4c3c2NC(=O)N4c2ccc(Oc3ccccc3)cc2C)C1` (single isomer, unassigned) [Example 535, (R)-5-(*S)-(2-Methyl-4-phenoxyphenyl)-N-(1-trideuteriomethylpiperidin-3-yl)-4-oxo-4,5-dihydro-3H-1-thia-3,5,8-triazaacenaphthylene-2-carboxamide]: under setting [1], the IC50 was 31.6 nM.
Consider `CCS(=O)(=O)N1CCC[C@@H](NC(=O)c2sc3nccc4c3c2NC(=O)N4c2ccc(Oc3ccccc3)cc2C)C1` (single isomer, unassigned) [Example 539, (R)—N-(1-(Ethylsulfonyl)piperidin-3-yl)-5-(*S)-(2-methyl-4-phenoxyphenyl)-4-oxo-4,5-dihydro-3H-1-thia-3,5,8-triazaacenaphthylene-2-carboxamide], for which, under setting [1], the “BTK_I_binding pIC50” value worked out at 7.2.
Same read-out and setting: to `Cc1cc(Oc2ccccc2)ccc1N1C(=O)Nc2c(C(=O)N[C@@H]3CCCN(C(C)C)C3)sc3nccc1c23` (single isomer, unassigned) [Example 542, (R)—N-(1-Isopropylpiperidin-3-yl)-5-(*S)-(2-methyl-4-phenoxyphenyl)-4-oxo-4,5-dihydro-3H-1-thia-3,5,8-triazaacenaphthylene-2-carboxamide] belongs 7.2; to `Cc1cc(Oc2ccccc2)ccc1N1C(=O)Nc2c(C(=O)N[C@@H]3CCN(C(=O)/C=C/CN4C[C@@H]5OCCO[C@@H]5C4)C3)sc3nccc1c23` (single isomer, unassigned) [Example 555, 5-(*S)-(2-Methyl-4-phenoxyphenyl)-4-oxo-N—((R)-1-((E)-4-((4aR,7aS)-tetrahydro-2H-[1,4]dioxino[2,3-c]pyrrol-6(3H)-yl)but-2-enol)pyrrolidin-3-yl)-4,5-dihydro-3H-1-thia-3,5,8-triazaacenaphthylene-2-carboxamide], 8.1.
As to `C=CC(=O)N1CCC[C@@H](NC(=O)c2sc3nccc4c3c2NC(=O)N4c2ccc(OC3CCC3)cc2C)C1` (single isomer, unassigned) [Example 609, (R)—N-(1-Acryloylpiperidin-3-yl)-5-(*S)-(4-cyclobutoxy-2-methylphenyl)-4-oxo-4,5-dihydro-3H-1-thia-3,5,8-triazaacenaphthylene-2-carboxamide], the “BTK_I_binding pIC50” value under setting [2] was 6.3.
In the case of `CC(C)(C)OC(=O)N1C[C@H](O)C[C@@H](NC(=O)c2sc3nccc4c3c2NC(=O)N4c2ccc(Oc3ccccc3)cc2)C1` (single isomer, unassigned) [Example 611], under setting [2], the IC50 is 631 nM.
With `C=CC(=O)N1CCC[C@@H](NC(=O)c2sc3nccc4c3c2NC(=O)N4c2cnc(Oc3ccccc3)cc2C)C1` (single isomer, unassigned) [Example 662, (R)—N-(1-Acryloylpiperidin-3-yl)-5-(*S)-(4-methyl-6-phenoxypyridin-3-yl)-4-oxo-4,5-dihydro-3H-1-thia-3,5,8-triazaacenaphthylene-2-carboxamide], the “BTK_I_binding pIC50” value under setting [2] is 8.1.
Still for that read-out and setting: to `C=CC(=O)N1CC[C@@H](NC(=O)c2sc3nccc4c3c2NC(=O)N4c2cnc(Oc3ccccc3)cc2C)C1` (single isomer, unassigned) [Example 663, (R)—N-(1-Acryloylpyrrolidin-3-yl)-5-(*S)-(4-methyl-6-phenoxypyridin-3-yl)-4-oxo-4,5-dihydro-3H-1-thia-3,5,8-triazaacenaphthylene-2-carboxamide] belongs 8.0.
Same read-out and setting: the result for `C=CC(=O)N1CC[C@@H](NC(=O)c2sc3nccc4c3c2NC(=O)N4c2cnc(Oc3ccccc3)nc2C)C1` (single isomer, unassigned) [Example 664, (R)—N-(1-Acryloylpyrrolidin-3-yl)-5-(*S)-(4-methyl-2-phenoxypyrimidin-5-yl)-4-oxo-4,5-dihydro-3H-1-thia-3,5,8-triazaacenaphthylene-2-carboxamide] reads 7.6; that for `C=CC(=O)N1CC[C@@H](NC(=O)c2sc3nccc4c3c2NC(=O)N4c2ccc(Oc3ccccc3)nc2C)C1` (single isomer, unassigned) [Example 666, (R)—N-(1-Acryloylpyrrolidin-3-yl)-5-(*R)-(2-methyl-6-phenoxypyridin-3-yl)-4-oxo-4,5-dihydro-3H-1-thia-3,5,8-triazaacenaphthylene-2-carboxamide], 6.3.
In the case of `C=CC(=O)N[C@H]1COC[C@H]1NC(=O)c1sc2nccc3c2c1NC(=O)N3c1cnc(Oc2ccccc2)cc1C` (single isomer, unassigned) [Example 668, N-(cis-4-Acrylamidotetrahydrofuran-3-yl)-5-(*)-(4-methyl-6-phenoxypyridin-3-yl)-4-oxo-4,5-dihydro-3H-1-thia-3,5,8-triazaacenaphthylene-2-carboxamide], the IC50 under setting [2] was 15.8 nM.
Consider `C=CC(=O)N1CCC[C@@H](NC(=O)c2sc3nccc4c3c2NC(=O)N4c2ccnc(-c3ccccc3)c2C)C1` (single isomer, unassigned) [Example 676, (R)—N-(1-Acryloylpiperidin-3-yl)-5-(*R)-(3-methyl-2-phenylpyridin-4-yl)-4-oxo-4,5-dihydro-3H-1-thia-3,5,8-triazaacenaphthylene-2-carboxamide], for which, under setting [2], the “BTK_I_binding pIC50” value is listed as 7.6.
Same read-out and setting: the result for `C=CC(=O)N1CCC[C@@H](NC(=O)c2sc3nccc4c3c2NC(=O)N4c2ccc(OC3CCC3)nc2C)C1` (single isomer, unassigned) [Example 682, (R)—N-(1-Acryloylpiperidin-3-yl)-5-(*S)-(6-cyclobutoxy-2-methylpyridin-3-yl)-4-oxo-4,5-dihydro-3H-1-thia-3,5,8-triazaacenaphthylene-2-carboxamide] reads 7.3.
As for `Cc1cc(Oc2ccccc2)ccc1N1C(=O)Nc2c(C(=O)N[C@@H]3CCCN(C(=O)/C=C/CN4C[C@@H]5OCCO[C@@H]5C4)C3)sc3nccc1c23` (single isomer, unassigned) [Example 684, 5-(*S)-(2-Methyl-4-phenoxyphenyl)-4-oxo-N—((R)-1-((E)-4-((4aR,7aS)-tetrahydro-2H-[1,4]dioxino[2,3-c]pyrrol-6(3H)-yl)but-2-enoyl)piperidin-3-yl)-4,5-dihydro-3H-1-thia-3,5,8-triazaacenaphthylene-2-carboxamide], the IC50 under setting [2] is 31.6 nM.
Take `Cc1cc(Oc2ccccc2)ncc1N1C(=O)Nc2c(C(=O)N[C@@H]3CCNC3)sc3nccc1c23` (single isomer, unassigned) [Example 702, (R)-5-(*S)-(4-Methyl-6-phenoxypyridin-3-yl)-4-oxo-N-(pyrrolidin-3-yl)-4,5-dihydro-3H-1-thia-3,5,8-triazaacenaphthylene-2-carboxamide]: the “BTK_I_binding pIC50” value under setting [2] was 6.8.
For `Cc1nc(Oc2ccccc2)ncc1N1C(=O)Nc2c(C(=O)N[C@@H]3CCNC3)sc3nccc1c23` (single isomer, unassigned) [Example 715, (R)-5-(*S)-(4-Methyl-2-phenoxypyrimidin-5-yl)-4-oxo-N-(pyrrolidin-3-yl)-4,5-dihydro-3H-1-thia-3,5,8-triazaacenaphthylene-2-carboxamide], the “BTK_I_binding pIC50” value under setting [2] was determined as 6.3.
Turning to `Cc1nc(Oc2ccccc2)ccc1N1C(=O)Nc2c(C(=O)N[C@@H]3CCNC3)sc3nccc1c23` (single isomer, unassigned) [Example 717, (R)-5-(*S)-(2-Methyl-6-phenoxypyridin-3-yl)-4-oxo-N-(pyrrolidin-3-yl)-4,5-dihydro-3H-1-thia-3,5,8-triazaacenaphthylene-2-carboxamide], the “BTK_I_binding pIC50” value under setting [2] is 6.4.
In the case of `C=CC(=O)N1CC[C@@H](NC(=O)c2sc3nccc4c3c2NC(=O)N4c2cnc(Oc3ccccc3)nc2C)C1` (single isomer, unassigned) [Example 724, (R)—N-(1-Acryloylpyrrolidin-3-yl)-5-(*R)-(4-methyl-2-phenoxypyrimidin-5-yl)-4-oxo-4,5-dihydro-3H-1-thia-3,5,8-triazaacenaphthylene-2-carboxamide], the “BTK_I_binding pIC50” value under setting [2] is 6.1.
Consider `Cc1nc(Oc2ccccc2)ccc1N1C(=O)Nc2c(C(=O)N[C@@H]3CCNC3)sc3nccc1c23` (single isomer, unassigned) [Example 728, (R)-5-(*R)-(2-Methyl-6-phenoxypyridin-3-yl)-4-oxo-N-(pyrrolidin-3-yl)-4,5-dihydro-3H-1-thia-3,5,8-triazaacenaphthylene-2-carboxamide], for which the “BTK_I_binding pIC50” value under setting [2] is <6.
For `C=CC(=O)N1CCC[C@@H](NC(=O)c2sc3nccc4c3c2NC(=O)N4c2ccc(OC3CCC3)nc2C)C1` (single isomer, unassigned) [Example 736, (R)—N-(1-Acryloylpiperidin-3-yl)-5-(*R)-(6-cyclobutoxy-2-methylpyridin-3-yl)-4-oxo-4,5-dihydro-3H-1-thia-3,5,8-triazaacenaphthylene-2-carboxamide], the “BTK_I_binding pIC50” value under setting [2] is recorded as <6.
For the molecule `C=CC(=O)N[C@H]1COC[C@H]1NC(=O)c1sc2nccc3c2c1NC(=O)N3c1cnc(Oc2ccccc2)cc1C` (single isomer, unassigned) [Example 745, N-((3*S,4*R)-4-Acrylamidotetrahydrofuran-3-yl)-5-(*S)-(4-methyl-6-phenoxypyridin-3-yl)-4-oxo-4,5-dihydro-3H-1-thia-3,5,8-triazaacenaphthylene-2-carboxamide], under setting [2], the IC50 was 7.94 nM.
